Experimental data: patent US10934302B1, “SHP2 phosphatase inhibitors and methods of use thereof” (Relay Therapeutics, Inc., priority 2018, dated 2021)

target: SHP2 (Homo sapiens (Human), UniProt Q06124); assay: SHP2 allosteric inhibition assay (DiFMUP prompt fluorescence); format: biochemical; conditions: 0.25 nM SHP2 activated with 0.5 μM peptide IRS1_pY1172(dPEG8)pY1222; substrate DiFMUP
Sequence (Q06124 whole entry): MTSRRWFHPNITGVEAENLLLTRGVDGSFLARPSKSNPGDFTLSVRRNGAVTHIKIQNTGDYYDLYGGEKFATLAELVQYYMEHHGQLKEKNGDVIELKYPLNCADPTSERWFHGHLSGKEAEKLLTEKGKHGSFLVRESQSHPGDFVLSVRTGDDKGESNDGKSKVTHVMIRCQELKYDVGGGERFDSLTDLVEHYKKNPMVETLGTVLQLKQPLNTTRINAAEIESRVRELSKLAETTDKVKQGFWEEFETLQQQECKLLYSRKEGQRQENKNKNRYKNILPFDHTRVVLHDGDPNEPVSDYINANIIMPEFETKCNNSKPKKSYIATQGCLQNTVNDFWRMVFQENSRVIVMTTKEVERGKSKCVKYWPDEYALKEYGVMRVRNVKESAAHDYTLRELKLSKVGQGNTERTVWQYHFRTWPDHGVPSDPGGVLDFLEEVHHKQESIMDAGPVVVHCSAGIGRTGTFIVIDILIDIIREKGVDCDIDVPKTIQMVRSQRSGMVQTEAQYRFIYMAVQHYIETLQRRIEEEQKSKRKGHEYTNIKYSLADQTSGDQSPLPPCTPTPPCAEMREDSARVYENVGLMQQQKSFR

| Compound | IC50 [nM] |
| --- | --- |
| Cc1nc(N2CCC3(CC2)Cc2ccccc2[C@H]3N)cnc1SC1CCCC1 [Example 250, (3S)-1′-[5-(cyclopentylsulfanyl)-6-methylpyrazin-2-yl]-1,3-dihydrospiro[indene-2,4′-piperidin]-3-amine] | ≤ 50 |
| NC1c2ccccc2CC12CCC(c1cnc(SCC3CC3)cn1)CC2 (single isomer, unassigned) [Example 283, (1s, 3'S, 4R)-4-{5-[(cyclopropylmethyl)sulfanyl]pyrazin-2-yl}-1′,3′-dihydrospiro[cyclohexane-1,2′-inden]-3′-amine] | > 10000 |
| N[C@@H]1c2ccccc2OC12CCN(c1cnc(Sc3ccnc(Cl)c3Cl)cn1)CC2 [Example 94] | ≤ 50 |
| Nc1nccc(Sc2cnc(C34C[C@@H]5C[C@@]6(C[C@H](C3)N54)Oc3ccccc3[C@H]6N)cn2)c1Cl (some centres unmarked) [Example 232] | ≤ 50 |
| Nc1nccc(Sc2cnc(C34C[C@@H]5C[C@@]6(Cc7ccccc7[C@H]6N)C[C@H](C3)N54)cn2)c1Cl (some centres unmarked) [Example 231] | > 10000 |
| N[C@@H]1c2ccccc2CC12CCN(c1cn3ccnc3cn1)CC2 [Example 169, (3S)-1′-{imidazo[1,2-a]pyrazin-6-yl}-1,3-dihydrospiro[indene-2,4′-piperidin]-3-amine] | 1000 to 10000 |
| N[C@@H]1c2ccccc2CC12CCN(C1=Nc3ncc(C4CC4)cc3C1)CC2 [Example 229] | ≤ 50 |
| Cc1nc2c(C3=CCOCC3)n[nH]c2nc1N1CCC2(CC1)Cc1ccccc1[C@H]2N [Example 167, (3S)-1′-[3-(3,6-dihydro-2H-pyran-4-yl)-5-methyl-1H-pyrazolo[3,4-b]pyrazin-6-yl]-1,3-dihydrospiro[indene-2,4′-piperidin]-3-amine] | ≤ 50 |
| C[C@@H](O)c1nc2c(N3CCCc4ncccc43)n[nH]c2nc1N1CCC2(CC1)Cc1ccccc1[C@H]2N (single isomer, unassigned) [Example 141] | ≤ 50 |
| N[C@@H]1c2ccccc2OC12CCN(c1cnc(Sc3ccnc(Cl)c3F)cn1)CC2 [Example 95] | ≤ 50 |
| N[C@@H]1c2ccccc2CC12CCN(c1ncc(N3CCc4ccccc43)nc1CO)CC2 [Example 213, (S)-(3-(1-amino-1,3-dihydrospiro[indene-2,4′-piperidin]-1′-yl)-6-(indolin-1-yl)pyrazin-2-yl) methanol] | 50 to 1000 |
| N[C@@H]1c2ccccc2CC12CCN(c1cnc(OC3CCCC3)cn1)CC2 [Example 251, (3S)-1′-[5-(cyclopentyloxy)pyrazin-2-yl]-1,3-dihydrospiro[indene-2,4′-piperidin]-3-amine] | > 10000 |
| N[C@@H]1c2cccc(F)c2CC12CCN(c1cnc3cn[nH]c3n1)CC2 [Example 23] | 1000 to 10000 |
| NC1c2ccccc2CC12CCN(c1nc3[nH]nc(N4CCCc5ncccc54)c3nc1CO)CC2 (centres unmarked) [Example 99] | ≤ 50 |
| N[C@@H]1c2ccccc2C[C@]12CC=C(c1cnc3c(N4CCCc5ncccc54)n[nH]c3n1)CC2 [Example 175, (1S,1'S)-4-(3-(3,4-dihydro-1,5-naphthyridin-1(2H)-yl)-1H-pyrazolo[3,4-b]pyrazin-6-yl)-1′,3′-dihydrospiro[cyclohex[3]ene-1,2′-inden]-1′-amine] | 1000 to 10000 |
| N[C@@H]1c2ccccc2OC12CCN(c1cnc(SCC3CC3)cn1)CC2 [Example 273, (R)-1′-(5-((cyclopropylmethyl)thio)pyrazin-2-yl)-3H-spiro[benzofuran-2,4′-piperidin]-3-amine] | ≤ 50 |
| N[C@@H]1c2ccccc2CC12CCN(c1cnc3c(C#Cc4ccccc4)n[nH]c3n1)CC2 [Example 143, (S)-1′-(3-(phenylethynyl)-1H-pyrazolo[3,4-b]pyrazin-6-yl)-1,3-dihydrospiro[indene-2,4′-piperidin]-1-amine] | ≤ 50 |
| Cn1cc(-c2ccc3c(n2)CCCN3c2n[nH]c3nc(N4CCC5(CC4)Cc4c(F)cccc4[C@H]5N)cnc23)cn1 [Example 42] | ≤ 50 |

| Compound | IC50 [nM] |
| --- | --- |
| Cn1ccc2c(c1=O)CCCN2c1n[nH]c2nc(N3CCC4(CC3)Cc3c(F)cccc3[C@H]4N)cnc12 [Example 53] | ≤ 50 |
| Nc1nccc(Sc2ccc(N3CCC4(CC3)Cc3ccc(F)cc3[C@H]4N)cn2)c1Cl [Example 218] | ≤ 50 |
| Cc1nc2c(C#N)n[nH]c2nc1N1CCC2(CC1)Cc1ccccc1[C@H]2N [Example 163, 6-[(3S)-3-amino-1,3-dihydrospiro[indene-2,4′-piperidin]-1′-yl]-5-methyl-1H-pyrazolo[3,4-b]pyrazine-3-carbonitrile] | 1000 to 10000 |
| N[C@@H]1c2ccccc2CC12CCN(C(=O)c1csc(N3CCCCC3)n1)CC2 [Example 204] | ≤ 50 |
| N[C@H]1c2ccccc2CC12CN(c1cnc3c(N4CCCc5ncccc54)n[nH]c3n1)C2 [Example 114] | ≤ 50 |
| Cc1nc2c(ccn2-c2cccc3ncccc23)nc1N1CCC2(CC1)Cc1ccccc1[C@H]2N [Example 194, (3S)-1′-[3-methyl-5-(quinolin-5-yl)-5H-pyrrolo[2,3-b]pyrazin-2-yl]-1,3-dihydrospiro[indene-2,4′-piperidin]-3-amine] | ≤ 50 |
| Nc1cc(Sc2cnc(N3CCC4(CC3)Cc3ccccc3[C@H]4N)cn2)c(Cl)c(Cl)n1 [Example 129, (S)-1′-(5-((6-amino-2,3-dichloropyridin-4-yl)thio)pyrazin-2-yl)-1,3-dihydrospiro[indene-2,4′-piperidin]-1-amine] | ≤ 50 |
| CCSc1cnc(N2CCC3(CC2)Cc2ccccc2[C@H]3N)cn1 [Example 170, (3S)-1′-[5-(ethylsulfanyl)pyrazin-2-yl]-1,3-dihydrospiro[indene-2,4′-piperidin]-3-amine] | 50 to 1000 |
| Cn1nccc1-c1cc(N2CCC3(CC2)Cc2ccccc2[C@H]3N)cn2ccnc12 [Example 201] | ≤ 50 |
| Cn1ccc2c(c1=O)CCCN2c1n[nH]c2nc(N3CCC4(CC3)Oc3c(F)cccc3[C@H]4N)cnc12 [Example 55] | ≤ 50 |
| Nc1nccc(Sc2ccc(N3CCC4(CC3)Oc3cc(F)ccc3[C@H]4N)cn2)c1Cl [Example 224] | 50 to 1000 |
| COc1nc(N2CCC3(CC2)Cc2ccccc2[C@H]3N)ncc1Sc1cccc(Cl)c1Cl [Example 262, (S)-1′-(5-((2,3-dichlorophenyl)thio)-4-methoxypyrimidin-2-yl)-1,3-dihydrospiro[indene-2,4′-piperidin]-1-amine] | 50 to 1000 |
| Nc1nccc(-c2n[nH]c3nc(N4CCC5(CC4)Cc4ccccc4[C@H]5N)cnc23)c1Cl [Example 79, (3S)-1′-[3-(2-amino-3-chloropyridin-4-yl)-1H-pyrazolo[3,4-b]pyrazin-6-yl]-1,3-dihydrospiro[indene-2,4′-piperidin]-3-amine] | ≤ 50 |
| Cc1nccc(Sc2n[nH]c3nc(N4CCC5(CC4)Cc4ccccc4[C@H]5N)cnc23)c1Cl [Example 90] | 50 to 1000 |
| N#Cc1ccc2c(c1)N(C1(C#N)CC1)CCN2c1n[nH]c2nc(N3CCC4(CC3)Cc3ccccc3[C@H]4N)cnc12 [Example 39] | ≤ 50 |
| NC1c2ccccc2C[C@]12CC[C@H](c1ccc(SCC3CC3)nc1)CC2 (single isomer, unassigned) [Example 282, (1s, 3′R, 4S)-4-{6-[(cyclopropylmethyl)sulfanyl]pyridin-3-yl}-1′,3′-dihydrospiro[cyclohexane-1,2′-inden]-3′-amine] | ≤ 50 |
| N[C@@H]1c2ccccc2OC12CCN(c1cnc(Sc3cccnc3Cl)cn1)CC2 [Example 96] | ≤ 50 |
